One series has as its target T1, ACV-R2A (Homo sapiens, UniProt P27037).
T1 construct: purchased ProQinase
Put plainly: single-point (1 uM) inhibition assay (ProQinase Kinase Profiler). Format: biochemical. The conditions noted are these: 1 uM compound, read-out: % residual activity class (FIG. 3).

In the next series the target is T2, BTK (Homo sapiens, UniProt Q06187).
T2 construct: purchased ProQinase
Described as above. The conditions noted are these: 1 uM compound, read-out: % residual activity class (FIG. 3). Format: biochemical.

A further series addresses T3, CSF1-R (Homo sapiens, UniProt P07333).
T3 construct: purchased ProQinase
The description is as above. Format: biochemical. The conditions noted are these: 1 uM compound, read-out: % residual activity class (FIG. 3).

For another series, the target named is T4, EGF-R (Homo sapiens, UniProt P00533).
T4 construct: purchased ProQinase
Described as above. Format: biochemical. The conditions noted are these: 1 uM compound, read-out: % residual activity class (FIG. 3).

In the next series the target is T5, EPHA1 (Homo sapiens, UniProt P21709).
T5 construct: purchased ProQinase
The series is described as above. Format: biochemical.

The target of the next series is T6, EPHA4 (Homo sapiens, UniProt P54764).
T6 construct: purchased ProQinase
Described as above. Format: biochemical.

Another series deals with T7, EPHA8 (Homo sapiens, UniProt P29322).
T7 construct: purchased ProQinase
Described as above. Format: biochemical.

A further series concerns the target T8, EPHB3 (Homo sapiens, UniProt P54753).
T8 construct: purchased ProQinase
The description is as above. Format: biochemical.

For a further series, the target named is T9, EPHB4 (Homo sapiens, UniProt P54760).
T9 construct: purchased ProQinase
Put plainly: biochemical.

The target of another series is T10, ERBB4 (Homo sapiens, UniProt Q15303).
T10 construct: purchased ProQinase
The experiment in a line: single-point (1 uM) inhibition assay (ProQinase Kinase Profiler). The conditions noted are these: 1 uM compound, read-out: % residual activity class (FIG. 3). Format: biochemical.

Another series deals with T11, KIT (Homo sapiens, UniProt P10721).
T11 construct: purchased ProQinase
The series is described as above. Format: biochemical.

The target in a further series is T12, LCK (Homo sapiens, UniProt P06239).
T12 construct: purchased ProQinase
The description is as above. Format: biochemical. The conditions noted are these: 1 uM compound, read-out: % residual activity class (FIG. 3).

The test system of another series is RAF1. The description is as above. Format: biochemical. The conditions noted are these: 1 uM compound.
The target in the next series is T13, SRC (Homo sapiens, UniProt P12931).
T13 construct: purchased ProQinase
The experiment in a line: biochemical. The conditions noted are these: 1 uM compound, read-out: % residual activity class (FIG. 3).

The target of another series is T14, YES (Homo sapiens, UniProt P07947).
T14 construct: purchased ProQinase
Put plainly: single-point (1 uM) inhibition assay (ProQinase Kinase Profiler). The conditions noted are these: 1 uM compound, read-out: % residual activity class (FIG. 3). Format: biochemical.

Another series deals with T15, FLT3 (Homo sapiens, UniProt P36888).
T15 construct: purchased ProQinase
Described as above. Format: biochemical. The conditions noted are these: read-out: % residual activity class (FIG. 3).

A short description of series [1]: human liver microsomal stability. Format: in vitro ADME.
The next series concerns the target NIK (Homo sapiens, UniProt Q99558). The experiment in a line: biochemical. The conditions noted are these: read-out: Residual activity (%) at 1 uM.
The target of a further series is WNK2 (Homo sapiens, UniProt Q9Y3S1). The experiment in a line: biochemical. The conditions noted are these: read-out: Residual activity (%) at 1 uM.
The target of another series is T16, BMPR1A (Homo sapiens, UniProt P36894).
T16 construct: purchased ProQinase, Freiburg, Germany (Kinase Profiler panel)
The experiment in a line: single-point (1 uM) inhibition assay (ProQinase Kinase Profiler). Format: biochemical.

The target in another series is EPHA6 (Homo sapiens, UniProt Q9UF33). The description is as above. Format: biochemical. The conditions noted are these: 1 uM compound, read-out: % residual activity class (FIG. 3).
The next series has as its target FGF-R2 (Homo sapiens, UniProt P21802). The description is as above. Format: biochemical. The conditions noted are these: read-out: % residual activity class (FIG. 3).
The next series deals with T17, JAK1 aa583-1154 wt (Homo sapiens, UniProt P23458).
T17 construct: JAK1 aa583-1154 wt; purchased ProQinase, Freiburg, Germany (Kinase Profiler panel)
The series is described as above. Format: biochemical.

Another series concerns KU812 tumours. The conditions noted are these: large KU812 tumours (up to >1 g); 50 mg/kg/day for 5 days; cited from earlier work.
Another series relates to K562 CML cells. The conditions noted are these: cited from earlier work.
The target in another series is hERG potassium channel (Homo sapiens, UniProt Q12809). The conditions noted are these: page 31, NDA 21-986, cited from earlier work.
For series [2] the following is noted: cited from earlier work.
For the next series, the target named is ACV-R2B (Homo sapiens, UniProt Q13705). Put plainly: biochemical. The conditions noted are these: read-out: % residual activity class (FIG. 3).
The target in another series is p38-beta (Homo sapiens, UniProt Q15759). Put plainly: biochemical. The conditions noted are these: read-out: % residual activity class (FIG. 3).
[3] abbreviates: read-out: % residual activity class (FIG. 3).
Where [4] appears, read: read-out: Residual activity (%) at 1 uM.

The structures appear in SMILES notation. Like-named read-outs stand apart in the source and are kept apart here.

T11 sequence (P10721 26-976): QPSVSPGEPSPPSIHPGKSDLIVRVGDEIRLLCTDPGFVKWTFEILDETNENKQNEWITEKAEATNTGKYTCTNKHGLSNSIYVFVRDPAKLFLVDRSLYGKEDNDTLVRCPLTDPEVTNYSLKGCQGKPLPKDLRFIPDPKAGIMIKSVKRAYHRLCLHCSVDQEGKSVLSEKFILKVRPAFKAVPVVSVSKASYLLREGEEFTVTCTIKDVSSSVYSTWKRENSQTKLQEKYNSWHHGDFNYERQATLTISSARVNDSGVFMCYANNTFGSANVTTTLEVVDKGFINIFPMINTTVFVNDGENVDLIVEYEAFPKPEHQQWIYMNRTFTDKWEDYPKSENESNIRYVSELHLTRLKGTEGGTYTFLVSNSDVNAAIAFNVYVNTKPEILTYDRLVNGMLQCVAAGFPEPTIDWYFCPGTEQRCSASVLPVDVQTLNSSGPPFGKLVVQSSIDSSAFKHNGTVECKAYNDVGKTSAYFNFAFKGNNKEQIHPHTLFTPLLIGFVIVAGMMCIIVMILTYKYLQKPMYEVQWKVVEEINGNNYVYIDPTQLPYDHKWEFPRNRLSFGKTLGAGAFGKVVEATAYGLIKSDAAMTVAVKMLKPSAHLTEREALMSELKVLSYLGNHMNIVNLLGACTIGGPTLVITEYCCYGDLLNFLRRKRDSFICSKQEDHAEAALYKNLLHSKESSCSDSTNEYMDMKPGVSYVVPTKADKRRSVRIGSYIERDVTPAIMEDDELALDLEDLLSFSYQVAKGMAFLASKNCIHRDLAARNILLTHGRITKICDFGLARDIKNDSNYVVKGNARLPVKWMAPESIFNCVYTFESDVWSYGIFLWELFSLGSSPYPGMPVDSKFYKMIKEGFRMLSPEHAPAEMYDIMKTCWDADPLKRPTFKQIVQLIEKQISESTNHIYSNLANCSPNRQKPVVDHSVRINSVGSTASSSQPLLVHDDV
T5 sequence (P21709 26-976): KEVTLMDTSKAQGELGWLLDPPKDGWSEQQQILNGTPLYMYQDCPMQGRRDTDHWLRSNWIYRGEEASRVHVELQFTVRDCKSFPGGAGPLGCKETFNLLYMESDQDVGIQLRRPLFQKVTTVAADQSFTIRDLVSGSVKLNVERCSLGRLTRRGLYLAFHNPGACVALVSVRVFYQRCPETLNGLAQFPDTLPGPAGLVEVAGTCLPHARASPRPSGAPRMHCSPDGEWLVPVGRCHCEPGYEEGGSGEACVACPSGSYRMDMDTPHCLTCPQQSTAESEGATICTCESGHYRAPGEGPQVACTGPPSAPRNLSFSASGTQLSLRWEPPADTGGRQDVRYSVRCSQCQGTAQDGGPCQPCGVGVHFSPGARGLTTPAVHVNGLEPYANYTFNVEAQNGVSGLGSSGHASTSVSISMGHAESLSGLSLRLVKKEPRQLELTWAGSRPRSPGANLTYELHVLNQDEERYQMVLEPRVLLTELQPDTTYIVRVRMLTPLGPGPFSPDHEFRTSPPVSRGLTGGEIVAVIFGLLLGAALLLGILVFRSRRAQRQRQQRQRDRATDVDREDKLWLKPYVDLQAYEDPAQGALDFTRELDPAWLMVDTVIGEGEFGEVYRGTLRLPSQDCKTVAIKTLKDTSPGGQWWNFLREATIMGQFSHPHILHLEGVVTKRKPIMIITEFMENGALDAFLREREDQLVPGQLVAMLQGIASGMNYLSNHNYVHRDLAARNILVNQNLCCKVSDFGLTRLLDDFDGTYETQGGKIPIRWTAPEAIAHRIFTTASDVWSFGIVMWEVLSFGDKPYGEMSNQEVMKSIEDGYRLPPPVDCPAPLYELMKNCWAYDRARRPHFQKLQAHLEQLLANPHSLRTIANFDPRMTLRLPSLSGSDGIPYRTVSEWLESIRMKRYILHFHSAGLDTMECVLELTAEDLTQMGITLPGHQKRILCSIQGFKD
T9 sequence (P54760 16-987): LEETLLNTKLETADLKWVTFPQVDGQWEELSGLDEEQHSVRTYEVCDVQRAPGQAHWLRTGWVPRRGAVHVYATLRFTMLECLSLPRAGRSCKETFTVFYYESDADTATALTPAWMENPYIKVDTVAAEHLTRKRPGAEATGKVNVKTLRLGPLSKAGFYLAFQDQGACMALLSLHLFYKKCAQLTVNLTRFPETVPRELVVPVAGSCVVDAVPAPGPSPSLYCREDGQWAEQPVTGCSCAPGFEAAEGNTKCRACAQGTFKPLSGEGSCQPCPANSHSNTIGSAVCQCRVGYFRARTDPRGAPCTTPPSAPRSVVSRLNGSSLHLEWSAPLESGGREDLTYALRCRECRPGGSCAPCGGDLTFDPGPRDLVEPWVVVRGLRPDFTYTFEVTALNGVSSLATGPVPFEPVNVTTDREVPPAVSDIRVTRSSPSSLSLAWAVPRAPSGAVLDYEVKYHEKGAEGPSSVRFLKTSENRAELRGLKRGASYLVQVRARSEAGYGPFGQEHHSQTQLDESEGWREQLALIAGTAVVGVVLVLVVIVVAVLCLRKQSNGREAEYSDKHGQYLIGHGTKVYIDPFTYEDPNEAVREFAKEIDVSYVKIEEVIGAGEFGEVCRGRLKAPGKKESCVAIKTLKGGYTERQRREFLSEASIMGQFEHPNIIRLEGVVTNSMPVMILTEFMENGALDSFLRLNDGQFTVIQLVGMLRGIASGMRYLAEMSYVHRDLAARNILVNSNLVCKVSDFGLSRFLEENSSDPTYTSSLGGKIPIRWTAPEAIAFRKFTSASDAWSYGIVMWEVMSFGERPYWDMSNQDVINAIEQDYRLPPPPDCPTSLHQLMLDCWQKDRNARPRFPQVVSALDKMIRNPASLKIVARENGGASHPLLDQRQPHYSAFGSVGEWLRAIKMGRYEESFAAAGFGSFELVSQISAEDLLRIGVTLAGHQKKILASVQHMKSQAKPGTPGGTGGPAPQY
T16 sequence (P36894 24-532): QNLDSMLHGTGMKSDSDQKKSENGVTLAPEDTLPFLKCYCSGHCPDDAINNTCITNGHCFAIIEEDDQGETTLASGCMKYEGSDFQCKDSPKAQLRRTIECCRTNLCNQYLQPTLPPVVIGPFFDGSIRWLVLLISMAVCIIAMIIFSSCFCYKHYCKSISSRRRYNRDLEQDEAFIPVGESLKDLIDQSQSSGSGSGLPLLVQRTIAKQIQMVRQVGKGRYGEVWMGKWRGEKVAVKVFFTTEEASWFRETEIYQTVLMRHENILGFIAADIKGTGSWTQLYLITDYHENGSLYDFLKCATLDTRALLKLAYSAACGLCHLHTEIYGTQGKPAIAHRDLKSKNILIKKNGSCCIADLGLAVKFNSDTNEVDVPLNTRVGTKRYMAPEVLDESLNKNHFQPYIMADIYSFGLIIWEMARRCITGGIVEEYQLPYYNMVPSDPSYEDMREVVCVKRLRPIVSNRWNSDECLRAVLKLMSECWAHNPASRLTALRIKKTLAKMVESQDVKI
T6 sequence (P54764 20-986): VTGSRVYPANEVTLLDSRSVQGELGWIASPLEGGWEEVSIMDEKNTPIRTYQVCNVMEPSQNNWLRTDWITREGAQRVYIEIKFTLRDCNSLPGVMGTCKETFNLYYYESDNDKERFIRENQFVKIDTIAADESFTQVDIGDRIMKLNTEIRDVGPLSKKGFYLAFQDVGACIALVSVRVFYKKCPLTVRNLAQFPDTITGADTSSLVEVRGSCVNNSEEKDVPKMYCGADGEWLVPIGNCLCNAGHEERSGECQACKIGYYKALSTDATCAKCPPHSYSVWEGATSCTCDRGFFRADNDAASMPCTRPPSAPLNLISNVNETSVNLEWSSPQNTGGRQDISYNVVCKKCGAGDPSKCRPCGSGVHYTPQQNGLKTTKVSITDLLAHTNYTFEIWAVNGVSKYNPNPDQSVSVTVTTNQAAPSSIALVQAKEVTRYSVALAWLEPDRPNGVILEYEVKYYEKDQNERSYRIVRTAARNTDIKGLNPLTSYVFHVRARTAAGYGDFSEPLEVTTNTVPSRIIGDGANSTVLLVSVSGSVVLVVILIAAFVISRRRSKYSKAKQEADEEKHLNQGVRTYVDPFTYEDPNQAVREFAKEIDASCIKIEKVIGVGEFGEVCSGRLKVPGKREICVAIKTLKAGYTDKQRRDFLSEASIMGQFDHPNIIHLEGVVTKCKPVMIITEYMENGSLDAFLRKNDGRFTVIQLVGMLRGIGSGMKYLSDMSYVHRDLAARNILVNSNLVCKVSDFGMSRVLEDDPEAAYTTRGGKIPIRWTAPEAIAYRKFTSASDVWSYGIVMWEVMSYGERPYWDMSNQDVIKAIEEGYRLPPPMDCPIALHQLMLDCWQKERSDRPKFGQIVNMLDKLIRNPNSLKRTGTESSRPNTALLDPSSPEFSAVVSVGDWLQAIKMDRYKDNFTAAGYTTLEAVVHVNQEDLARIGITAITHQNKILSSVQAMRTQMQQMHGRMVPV
T17 sequence (P23458 583-1154): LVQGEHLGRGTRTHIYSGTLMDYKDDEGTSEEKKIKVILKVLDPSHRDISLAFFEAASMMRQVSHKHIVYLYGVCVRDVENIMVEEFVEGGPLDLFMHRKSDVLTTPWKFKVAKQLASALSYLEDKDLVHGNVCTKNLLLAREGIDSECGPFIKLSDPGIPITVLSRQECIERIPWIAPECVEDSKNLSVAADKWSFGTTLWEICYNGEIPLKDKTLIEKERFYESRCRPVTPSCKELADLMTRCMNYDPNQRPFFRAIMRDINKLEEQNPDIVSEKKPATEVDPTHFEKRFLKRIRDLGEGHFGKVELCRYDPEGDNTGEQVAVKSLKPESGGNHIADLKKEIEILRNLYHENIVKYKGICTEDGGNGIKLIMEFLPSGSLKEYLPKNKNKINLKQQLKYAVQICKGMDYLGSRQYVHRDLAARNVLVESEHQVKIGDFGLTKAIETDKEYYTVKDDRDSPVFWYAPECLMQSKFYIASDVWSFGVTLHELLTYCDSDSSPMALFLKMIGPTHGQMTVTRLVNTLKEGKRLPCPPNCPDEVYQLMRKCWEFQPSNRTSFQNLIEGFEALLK

Turning to `Cc1nc(Nc2ncc(C(=O)Nc3c(Cl)ccnc3C)s2)cc(N2CCN(CCO)CC2)n1` [Compound B3, N-(4-chloro-2-methylpyridin-3-yl)-2-((6-(4-(2-hydroxyethyl)piperazin-1-yl)-2-methylpyrimidin-4-yl)amino)thiazole-5-carboxamide], the remaining activity at 1 µM is 25 to 50% at ACV-R2A; below 25% at BTK; below 25% on CSF1-R; 25 to 50% at EGF-R; below 25% at EPHA1 (setting [3]); 3% at EPHA1 (setting [4]). In addition, the remaining activity at 1 µM at EPHA4 (setting [3]) is below 25%; at EPHA4 (setting [4]), 10%; at EPHA8 (setting [3]), below 25%; on EPHA8 (setting [4]) it was 3%; on EPHB3 (setting [3]) it was below 25%; on EPHB3 (setting [4]), 3%. Moreover, the remaining activity at 1 µM on EPHB4 (EPHB4, 1 uM compound, read-out: % residual activity class (FIG. 3)) is below 25%; on EPHB4 (setting [4]), 1%; at ERBB4, below 25%; on KIT (setting [3]) it was below 25%; at KIT (setting [4]), 5%; at LCK, below 25%. Also, the remaining activity at 1 µM was below 25% on SRC; below 25% at YES; 25 to 50% at FLT3; 100% at NIK; 100% at WNK2. For the same compound, the “% residual activity class (FIG. 3)” value in the series with RAF1 is given as “*** (25% to <50% residual activity)”. In series [1], this compound gave a Half-life of 58 min.
Turning to `Cc1nc(Nc2ncc(C(=O)Nc3c(C)cccc3Cl)s2)cc(N2CCN(CCO)CC2)n1` [Compound A8, N-(2-chloro-6-methylphenyl)-2-((6-(4-(2-hydroxyethyl)piperazin-1-yl)-2-methylpyrimidin-4-yl)amino)thiazole-5-carboxamide, reference compound], the remaining activity at 1 µM was 25 to 50% on BMPR1A (BMPR1A, 1 uM compound, read-out: % residual activity class (FIG. 3)); 42% on BMPR1A (setting [4]); 25 to 50% on EPHA6; 25 to 50% at FGF-R2; 25 to 50% at JAK1 aa583-1154 wt (setting [3]); 41% on JAK1 aa583-1154 wt (setting [4]). In addition, the remaining activity at 1 µM at ACV-R2B and at p38-beta was below 25% throughout. In addition, the tumour response entry in the series on KU812 tumours is recorded as “curative”. Also, the survival entry with K562 CML cells (10 mg/kg/day) was “increased survival”. The “survival / intracranial tumour growth” value in the series on K562 CML cells (similar study, dasatinib 10 and 30 mg/kg/day, imatinib 200 mg/kg/day) is reported as “increased survival”. The “inhibition of hERG currents” value is given as “about 6%” at hERG potassium channel (3 uM) and around 36% on hERG potassium channel (10 uM). The cardiac adverse reactions in series [2] (258 patients taking dasatinib) is 5.8 % of patients. Further, the “cardiomyopathy, heart failure congestive, diastolic dysfunction, fatal myocardial infarction, and left ventricular dysfunction” value in [2] (258 patients taking dasatinib) was 1.6 % of patients. Moreover, the “other cases of severe haemorrhage” value in [2] (all clinical studies) was 2 % of patients. For the same compound, the “severe central nervous system (CNS) haemorrhages (including fatalities)” value in series [2] (all clinical studies) was 1 % of patients. Also, the “severe gastrointestinal haemorrhage, including fatalities” value in [2] (all clinical studies) is 4 % of patients. Moreover, the QT prolongation entry in series [2] (clinical trials) is “up to 1 % of CML patients”. For the same compound, the severe fluid retention entry in series [2] (clinical trials) is given as “up to 10 % of patients”.

The values above are taken from patent US12139480B2, “5-thiazolecarboxamide kinase inhibitor and uses thereof” (iOmx Therapeutics AG, priority 2018, dated 2024).
